Reference: US20250360111A1, “COMPOSITIONS OF AGPAT4 INHIBITORS AND METHODS OF USING THEREOF TO TREAT CANCER” (The University of Hong Kong, priority 2024, published 2025)
Residue numbers refer to the chain shown, from its start. pIC50: −log10 of the molar value.

Legend:
[1] = molecular target: T1, acyltransferase activity of AGPAT4 (Homo sapiens, UniProt Q9NRZ5, C228A); test: LPA to PA conversion assay; type: biochemical; settings: Huh7 cells, AGPAT4 C228A mutant
T1 construct: The open reading frame (ORF) encoding the mRNA of AGPAT4 was cloned into the pDONR-221 donor vector; expressed in transfected cells; host or cells: Huh7 (lentiviral pEZ-Lv199-AGPAT4)
T1 sequence (Q9NRZ5 1-378 C228A): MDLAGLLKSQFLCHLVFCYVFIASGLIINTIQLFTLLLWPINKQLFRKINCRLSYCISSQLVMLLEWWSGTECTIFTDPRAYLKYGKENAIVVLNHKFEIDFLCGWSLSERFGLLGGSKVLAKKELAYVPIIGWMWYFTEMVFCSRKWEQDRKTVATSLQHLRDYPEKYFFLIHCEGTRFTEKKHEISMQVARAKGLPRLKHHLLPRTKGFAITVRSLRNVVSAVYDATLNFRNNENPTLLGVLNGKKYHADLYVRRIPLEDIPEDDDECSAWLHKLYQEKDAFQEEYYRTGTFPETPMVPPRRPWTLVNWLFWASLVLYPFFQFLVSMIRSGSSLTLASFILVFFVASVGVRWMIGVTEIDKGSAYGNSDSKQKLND
Procedure: (§1) Enzyme activity was measured by quantifying the conversion of [3H]-LPA to [3H]-PA following the protocol outlined in a previous study (43). Briefly, the enzymatic reaction was prepared by combining 10 μmol/L 18:1 Lyso PA (Avanti Polar Lipids), 50 μmol/L oleoyl CoA (Sigma-Aldrich), 1 μL 1-oleoyl-[oleoyl-9,10^−3H]-LPA (specific activity 30-60 Ci/mmol; PerkinElmer), and 1 mg/mL fatty acid-free BSA in 200 μL 100 mM Tris-HCl buffer at pH 7.4. The reaction was initiated by adding 30 μg of total protein (cell lysate) and incubating the mixture at 37° C. for 10 min. To stop the reaction, 0.5 mL of 1-butanol containing 1 M HCl was added to extract phospholipids to stop the reaction. The butanol extract was then dried under vacuum, and the LPA and PA were separated using a solvent system consisting of chloroform, methanol, acetic acid, and water (25:10:3:1). Radioactive spots were identified by comparing their migration with unlabelled LPA and PA standards and visualized using iodine vapours. The spots corresponding to [3H]-LPA and [3H]-PA were scraped and their radioactivity was measured using a Tri-Carb Liquid Scintillation Counter 4810 (PerkinElmer Life Sciences).

[2] = molecular target: T2, acyltransferase activity of AGPAT4 (Homo sapiens, UniProt Q9NRZ5); test: LPA to PA conversion assay; type: biochemical
T2 construct: The open reading frame (ORF) encoding the mRNA of AGPAT4 was cloned into the pDONR-221 donor vector; expressed in transfected cells; host or cells: Huh7 (lentiviral pEZ-Lv199-AGPAT4); also sorafenib-resistant HepG2 (endogenous AGPAT4)
T2 sequence (Q9NRZ5 1-378): T1 sequence (Q9NRZ5 1-378 C228A) with A228C
Procedure: as §1

[3] = molecular target: T3, Purified human AGPAT4 protein (Homo sapiens, UniProt Q9NRZ5); test: In vitro binding to AGPAT4 by gel-based ABPP (competition with IA-rhodamine); settings: loss of IA-rhodamine fluorescence
T3 construct: The open reading frame (ORF) encoding the mRNA of AGPAT4 was cloned into pGEX-4T1; made in house; host or cells: Escherichia coli BL21
T3 sequence (Q9NRZ5 1-378): T1 sequence (Q9NRZ5 1-378 C228A) with A228C
Procedure: Purified human AGPAT4 protein (0.1 μg) was incubated with library compounds at 25 μM (unless indicated) for 1 h at room temperature, followed by incubation with IA-rhodamine (1 μM) for 1 h. Sampling buffer was added and the samples were denatured by boiling at 90° C. The samples were resolved by SDS-PAG E and fluorescence signals were captured using ChemiDoc MP (Bio-Rad) before silver staining to assess protein loading. The band fluorescence intensity was quantified using the ImageJ software.

## O=C(CCl)NCc1ccc(-c2nc3ccccc3s2)o1 [CL26, N-[[5-(2-benzothiazolyl)-2-furanyl]methyl]-2-chloroacetamide]
[1]
  LPA to PA conversion vs DMSO control: did not show difference in LPA to PA conversion
[2]; Huh7 cells overexpressing AGPAT4 and sorafenib-resistant HepG2 cells
  inhibition of acyltransferase activity (LPA to PA conversion): inhibition of acyltransferase activity of AGPAT4 in vitro was verified
[2]; sorafenib-resistant HCC PDX model #2
  inhibition of acyltransferase activity (PA conversion assay) in tumors: inhibitory effect of CL26 on acyltransferase activity in sorafenib-resistant PDX was confirmed
[3]
  pIC50: 6.12
